The values below come from PubChem BioAssay (NCI).

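Test compounds were applied to cells in 96-well plates for 48 hours at 5 doses. Here, GI50 denotes the concentration required for 50% inhibition of growth. Definition used: TGI = concentration required for complete inhibition of growth.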

Some test systems named below: MDA-MB-435; LOX IMVI melanoma; OVCAR-8 ovarian; MCF7 breast; KM12 colon; MALME-3M melanoma; TK-10 renal; RPMI-8226 leukemia; ACHN renal; SNB-19 CNS.
Common to all, as to test: DTP human tumour cell line panel, 48 h

For `CCN(CC)CCCCNc1c2ccc(Cl)cc2nc2ccc(OC)cc12`, the GI50 in the assay with MDA-MB-435 was 1050 nM; in the assay with LOX IMVI melanoma, 213 nM; in the assay on OVCAR-8 ovarian it was 406 nM; in the assay with MCF7 breast, 294 nM; in the assay on KM12 colon it was 456 nM; in the assay on MALME-3M melanoma, 1540 nM. Moreover, the GI50 in the assay on TK-10 renal is 925 nM; with RPMI-8226 leukemia, 566 nM; with ACHN renal, 371 nM. For the same molecule, the concentration for total growth inhibition (TGI) was 2.31 µM in the assay on MDA-MB-435; 0.583 µM in the assay with LOX IMVI melanoma; 3.35 µM in the assay with OVCAR-8 ovarian; 1.69 µM in the assay with MCF7 breast; 2.61 µM with KM12 colon; 3.65 µM in the assay with MALME-3M melanoma. Besides, the TGI was 4.59 µM with TK-10 renal, 4.2 µM in the assay with RPMI-8226 leukemia and 2.27 µM in the assay on ACHN renal.

On to `C[As+](C)(c1ccc(Br)c([N+](=O)[O-])c1)c1ccc(Br)c([N+](=O)[O-])c1.O=[N+]([O-])O`, for which the total growth inhibition concentration (TGI) in the assay on MDA-MB-435, in the assay with SNB-19 CNS, in the assay with LOX IMVI melanoma, in the assay on OVCAR-8 ovarian, in the assay on MCF7 breast and with KM12 colon was greater than 100 µM in each case. The TGI was 34.1 µM with MALME-3M melanoma, greater than 100 µM with TK-10 renal, greater than 100 µM with RPMI-8226 leukemia and greater than 100 µM with ACHN renal.

Turning to `CC(C)=CCc1c(O)cc2oc(-c3ccc(O)cc3O)cc(=O)c2c1O`, the TGI in the assay on MDA-MB-435 is greater than 75.5 µM; in the assay on SNB-19 CNS, greater than 100 µM; in the assay with LOX IMVI melanoma, 59.1 µM; with OVCAR-8 ovarian it was greater than 100 µM; in the assay on MCF7 breast, greater than 65.6 µM; with KM12 colon it was 50.8 µM. The TGI is 53.7 µM in the assay with MALME-3M melanoma, 69.7 µM in the assay on TK-10 renal, 41.4 µM in the assay with RPMI-8226 leukemia and 77 µM with ACHN renal.

On to `CCN(CC)C(=S)N/N=C(/c1ccccc1)c1ccccn1`, for which the TGI with MDA-MB-435 is greater than 47.3 µM; in the assay with SNB-19 CNS, greater than 100 µM; in the assay on LOX IMVI melanoma, greater than 35.8 µM; in the assay on OVCAR-8 ovarian it was 11.3 µM; in the assay on MCF7 breast it was greater than 54 µM; with KM12 colon it was 19.6 µM. The TGI in the assay on MALME-3M melanoma was greater than 47.1 µM; with TK-10 renal it was 29 µM; in the assay on RPMI-8226 leukemia it was 45.1 µM; with ACHN renal it was 5.39 µM.

For the molecule `CC[C@H](NC(=O)OC(C)(C)C)C(=O)NCP(=O)(OCc1ccc([N+](=O)[O-])cc1)OCc1ccc([N+](=O)[O-])cc1`, the total growth inhibition concentration (TGI) in the assay on MDA-MB-435, with SNB-19 CNS, in the assay on LOX IMVI melanoma, in the assay on OVCAR-8 ovarian, with MCF7 breast and with KM12 colon was greater than 100 µM in each case. The concentration for total growth inhibition (TGI) in the assay with MALME-3M melanoma was greater than 100 µM; with TK-10 renal it was greater than 100 µM; with RPMI-8226 leukemia, greater than 100 µM; with ACHN renal, 69.7 µM.

Turning to `O=C1C=CC(=O)c2c(O)c(N3CCC[C@@H]3CO)c(Cl)c(O)c21`, the TGI with MDA-MB-435 worked out at 3.78 µM; in the assay with SNB-19 CNS it was 3.09 µM; in the assay on LOX IMVI melanoma, 3.16 µM; with OVCAR-8 ovarian, 4.13 µM; in the assay on MCF7 breast it was 2.7 µM; in the assay on KM12 colon, 3.16 µM. For the same molecule, the concentration for total growth inhibition (TGI) with MALME-3M melanoma stood at 3.07 µM; with TK-10 renal, 3.3 µM; with RPMI-8226 leukemia, 1.69 µM; with ACHN renal, 2.96 µM.

Take `COc1cc2c(cc1OCc1ccccc1)NC(=O)[C@@H]1CCCN1C2=O`: the TGI in the assay on MDA-MB-435, in the assay with SNB-19 CNS, with LOX IMVI melanoma, in the assay on OVCAR-8 ovarian, in the assay on MCF7 breast and in the assay with KM12 colon was greater than 100 µM throughout. Moreover, the concentration for total growth inhibition (TGI) with MALME-3M melanoma, with TK-10 renal, in the assay with RPMI-8226 leukemia and with ACHN renal was greater than 100 µM each time.

Take `CC1=C(C)SC(=C2Sc3c(n(C)c(=O)n(C)c3=O)S2)S1`: the TGI with MDA-MB-435 is greater than 100 µM; in the assay with SNB-19 CNS it was greater than 100 µM; in the assay with LOX IMVI melanoma, greater than 100 µM; in the assay on OVCAR-8 ovarian it was 64.5 µM; with MCF7 breast, greater than 100 µM; in the assay with KM12 colon, greater than 100 µM. Moreover, the concentration for total growth inhibition (TGI) in the assay on MALME-3M melanoma was greater than 100 µM; in the assay with TK-10 renal it was 74.7 µM; in the assay with RPMI-8226 leukemia it was greater than 100 µM; in the assay on ACHN renal it was greater than 100 µM.

Regarding `NC(=O)c1ccc[n+](C2=C([O-])c3ccccc3C(=O)/C2=N\S(=O)(=O)c2ccccc2)c1`, the TGI amounted to 17.2 µM in the assay on MDA-MB-435; 29.9 µM with SNB-19 CNS; 29.5 µM in the assay on LOX IMVI melanoma; 28.4 µM with OVCAR-8 ovarian; 29.6 µM in the assay with MCF7 breast; 26.7 µM in the assay on KM12 colon. Moreover, the TGI was 20.1 µM in the assay with MALME-3M melanoma, greater than 100 µM in the assay with TK-10 renal, greater than 100 µM in the assay with RPMI-8226 leukemia and 26.4 µM with ACHN renal.

With `Clc1ccc(/C(=C/c2ccccc2)Cn2ccnc2)cc1`, the TGI with MDA-MB-435 was 67.7 µM; in the assay with SNB-19 CNS it was greater than 100 µM; in the assay with LOX IMVI melanoma, 91.1 µM; with OVCAR-8 ovarian it was greater than 100 µM; in the assay on MCF7 breast, greater than 100 µM; in the assay with KM12 colon, greater than 100 µM. Besides, the total growth inhibition concentration (TGI) with MALME-3M melanoma is greater than 100 µM; with TK-10 renal it was greater than 100 µM; with RPMI-8226 leukemia, 73.6 µM; in the assay on ACHN renal, greater than 100 µM.

On to `CN1C2=Nc3n(c4ccccc4[n+]3C)CN2c2ccccc21`, for which the TGI was 91 µM in the assay on MDA-MB-435; greater than 100 µM in the assay with SNB-19 CNS; greater than 100 µM in the assay on OVCAR-8 ovarian; 33.6 µM in the assay on MCF7 breast; 46.8 µM in the assay on KM12 colon; 18 µM in the assay with MALME-3M melanoma. Besides, the TGI with TK-10 renal, with RPMI-8226 leukemia and with ACHN renal was greater than 100 µM in each case.

Regarding `COc1ccc(C2c3cc4c(cc3OC(Nc3ccccc3)C2C)OCO4)cc1` (stereo not given), the TGI in the assay with MDA-MB-435, in the assay with SNB-19 CNS, in the assay on LOX IMVI melanoma, with MCF7 breast, with KM12 colon and with MALME-3M melanoma was greater than 100 µM in each case. For the same molecule, the TGI in the assay with TK-10 renal, with RPMI-8226 leukemia and in the assay on ACHN renal was greater than 100 µM in each case.

As for `N#Cc1c(-c2ccc([N+](=O)[O-])cc2)c(C#N)c(=O)n(NS(=O)(=O)c2ccccc2)c1O`, the TGI with MDA-MB-435 is greater than 100 µM; in the assay with SNB-19 CNS, 35.5 µM; in the assay with LOX IMVI melanoma it was greater than 100 µM; in the assay on OVCAR-8 ovarian it was greater than 100 µM; in the assay with MCF7 breast, greater than 100 µM; in the assay with MALME-3M melanoma it was greater than 100 µM. For the same molecule, the TGI in the assay with TK-10 renal, in the assay with RPMI-8226 leukemia and in the assay on ACHN renal was greater than 100 µM throughout.

In general, GI50 refers to the concentration giving 50% growth inhibition. In general, TGI refers to the concentration at which net growth stops. The low end stands for greater sensitivity of the cells, the high end for lower sensitivity of the cells.
